According to patent publication US10898475B2, “Bach1 inhibitors in combination with Nrf2 activators and pharmaceutical compositions thereof” (vTv Therapeutics LLC, priority 2014, dated 2021):
Where “and” joins values, the source holds several entries; their conditions need not be identical. Identical values can stand only once. Counter-ions that a name gives are not always drawn.

Test system: HMOX1 in Normal Human Lung Fibroblasts (NHLF)
Assay: HMOX1 Protein Expression (immunostaining, fold induction or % positive cells over DMSO)
Conditions: for % Cells Positive HMOX: Cpd. 0 uM
[1] = Homo sapiens, Fibroblast, read-out: Fold Induction of HMOX

## COC(=O)/C=C/C(=O)OC [DMF, dimethyl fumarate, reference compound]
Bach1 Inhibitor Conc. 0 uM, % Positive HMOX
  Hill slope of DMF dose response curves in Table 2: 1.25 and 1.26
DMF 0.03 uM
  % Cells Positive HMOX: 1.71%
DMF 0.1 uM
  % Cells Positive HMOX: 1.21%
DMF 0.3 uM
  % Cells Positive HMOX: 2.47%
DMF 1 uM
  % Cells Positive HMOX: 4.38%
DMF 3 uM
  % Cells Positive HMOX: 41.58%
DMF 10 uM
  % Cells Positive HMOX: 74.35%
DMF 30 uM
  % Cells Positive HMOX: 84.56%
[1]
  fold induction at 0.03 µM: 1.04
  fold induction at 0.1 µM: 1.06
  fold induction at 0.3 µM: 1.14
  fold induction at 1 µM: 1.39
  fold induction at 3 µM: 2.76
  fold induction at 10 µM: 4.45
  fold induction at 30 µM: 6.19
